According to ChEMBL document CHEMBL4715706, “Discovery of Benzotriazolo[4,3-d][1,4]diazepines as Orally Active Inhibitors of BET Bromodomains” (ACS Med Chem Lett, 2016):

Columns and labels:
[1] = molecular target: T1, ATPase family AAA domain-containing protein 2 (Homo sapiens, UniProt Q6PL18); assay: Inhibition of His-tagged ATAD2 (unknown origin) using biotinylated acetylated peptide as substrate measured after 20 mins by AlphaLISA assay
T1 sequence (Q6PL18 whole entry): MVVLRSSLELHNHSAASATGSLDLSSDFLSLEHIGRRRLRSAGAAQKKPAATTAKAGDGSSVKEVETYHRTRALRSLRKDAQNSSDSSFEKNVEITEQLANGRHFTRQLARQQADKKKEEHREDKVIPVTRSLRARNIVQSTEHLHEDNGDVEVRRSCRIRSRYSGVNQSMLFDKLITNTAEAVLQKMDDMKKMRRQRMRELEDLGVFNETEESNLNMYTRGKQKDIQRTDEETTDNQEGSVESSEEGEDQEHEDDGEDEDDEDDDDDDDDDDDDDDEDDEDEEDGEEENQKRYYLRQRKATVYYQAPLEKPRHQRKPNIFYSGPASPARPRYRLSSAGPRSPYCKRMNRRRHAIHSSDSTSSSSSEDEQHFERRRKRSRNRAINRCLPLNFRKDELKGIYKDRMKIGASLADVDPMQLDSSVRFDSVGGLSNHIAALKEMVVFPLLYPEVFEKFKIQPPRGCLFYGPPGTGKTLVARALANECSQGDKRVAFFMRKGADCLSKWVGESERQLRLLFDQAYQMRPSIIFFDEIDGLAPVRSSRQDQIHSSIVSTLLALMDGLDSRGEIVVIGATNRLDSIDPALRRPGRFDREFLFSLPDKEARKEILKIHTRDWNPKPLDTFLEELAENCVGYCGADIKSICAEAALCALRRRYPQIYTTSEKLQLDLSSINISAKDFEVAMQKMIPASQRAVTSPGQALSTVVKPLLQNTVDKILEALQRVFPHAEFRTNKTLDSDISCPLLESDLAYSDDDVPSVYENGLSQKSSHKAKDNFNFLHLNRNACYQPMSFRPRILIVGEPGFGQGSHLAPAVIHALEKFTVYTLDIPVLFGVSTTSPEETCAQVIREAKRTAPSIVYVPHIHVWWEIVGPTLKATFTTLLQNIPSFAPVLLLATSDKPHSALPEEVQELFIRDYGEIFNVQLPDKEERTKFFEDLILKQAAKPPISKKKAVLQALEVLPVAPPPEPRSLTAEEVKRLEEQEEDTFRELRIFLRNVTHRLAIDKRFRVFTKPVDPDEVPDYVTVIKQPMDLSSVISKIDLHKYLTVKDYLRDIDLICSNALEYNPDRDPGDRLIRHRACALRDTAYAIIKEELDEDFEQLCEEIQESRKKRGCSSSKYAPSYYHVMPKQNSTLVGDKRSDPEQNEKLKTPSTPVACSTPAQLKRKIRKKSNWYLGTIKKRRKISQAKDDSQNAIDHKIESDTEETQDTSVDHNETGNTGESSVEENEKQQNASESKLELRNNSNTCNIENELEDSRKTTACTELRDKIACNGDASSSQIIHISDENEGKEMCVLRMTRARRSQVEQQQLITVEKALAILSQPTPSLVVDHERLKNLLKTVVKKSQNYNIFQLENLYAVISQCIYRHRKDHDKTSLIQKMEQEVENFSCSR

[2] = AUClast in rat at 10 mg/kg, po; assay type: ADME, organism-based; set-up: time 0 - last, route oral, dose 10 mg/kg; settings: in vivo
[3] = Half life in rat at 10 mg/kg, po; assay type: ADME, organism-based; settings: in vivo
[4] = Clearance in rat at 1 mg/kg, iv relative to liver blood flow; assay type: ADME, organism-based; settings: in vivo
[5] = Protein binding in dog plasma
[6] = molecular target: Bromodomain-containing protein 2 (Homo sapiens, UniProt P25440); assay: Inhibition of BRD2 BD2 (unknown origin) using biotinylated JQ1 analog as substrate measured after 20 mins by AlphaLISA assay
Bromodomain-containing protein 2, sequence (P25440 whole entry): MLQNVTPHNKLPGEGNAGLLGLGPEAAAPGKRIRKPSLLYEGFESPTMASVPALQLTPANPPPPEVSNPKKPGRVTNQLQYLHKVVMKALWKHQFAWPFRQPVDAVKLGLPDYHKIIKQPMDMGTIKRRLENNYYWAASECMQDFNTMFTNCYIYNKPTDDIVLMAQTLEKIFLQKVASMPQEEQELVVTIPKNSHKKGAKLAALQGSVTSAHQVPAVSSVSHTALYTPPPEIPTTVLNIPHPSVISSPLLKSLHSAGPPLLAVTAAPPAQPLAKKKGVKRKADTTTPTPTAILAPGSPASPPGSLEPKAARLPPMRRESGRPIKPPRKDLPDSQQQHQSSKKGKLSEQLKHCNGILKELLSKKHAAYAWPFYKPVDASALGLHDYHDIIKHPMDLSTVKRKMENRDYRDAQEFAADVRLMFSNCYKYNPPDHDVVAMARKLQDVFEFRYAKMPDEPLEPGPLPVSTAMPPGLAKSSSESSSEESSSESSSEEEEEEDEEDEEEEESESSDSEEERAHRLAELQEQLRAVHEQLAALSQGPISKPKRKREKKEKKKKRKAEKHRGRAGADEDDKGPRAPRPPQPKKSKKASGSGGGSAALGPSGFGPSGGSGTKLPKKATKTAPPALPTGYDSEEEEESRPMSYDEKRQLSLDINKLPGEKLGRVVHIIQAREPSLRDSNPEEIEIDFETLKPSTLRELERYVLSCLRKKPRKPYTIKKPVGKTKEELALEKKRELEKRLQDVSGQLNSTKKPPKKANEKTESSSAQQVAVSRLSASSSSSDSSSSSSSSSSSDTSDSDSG

[7] = molecular target: Nucleosome-remodeling factor subunit BPTF (Homo sapiens, UniProt Q12830); assay: Inhibition of BPTF (unknown origin) measured after 70 mins by TR-FRET assay
[8] = Protein binding in mouse plasma
[9] = Oral bioavailability in rat at 10 mg/kg; assay type: ADME, organism-based; settings: in vivo
[10] = Volume of distribution at steady state in rat at 1 mg/kg, iv; assay type: ADME, organism-based; settings: in vivo, read-out: Vdss
[11] = Protein binding in human plasma; assay type: ADME, cell-free; settings: read-out: PPB (converted)
[12] = Unbound clearance in rat at 1 mg/kg, iv; assay type: ADME, organism-based; settings: in vivo
CREB-binding protein = CREB-binding protein (Homo sapiens, UniProt Q92793); assay: Inhibition of His-tagged CBP (unknown origin) using biotinylated acetylated peptide as substrate measured after 20 mins by AlphaLISA assay
CREB-binding protein, sequence (Q92793 whole entry): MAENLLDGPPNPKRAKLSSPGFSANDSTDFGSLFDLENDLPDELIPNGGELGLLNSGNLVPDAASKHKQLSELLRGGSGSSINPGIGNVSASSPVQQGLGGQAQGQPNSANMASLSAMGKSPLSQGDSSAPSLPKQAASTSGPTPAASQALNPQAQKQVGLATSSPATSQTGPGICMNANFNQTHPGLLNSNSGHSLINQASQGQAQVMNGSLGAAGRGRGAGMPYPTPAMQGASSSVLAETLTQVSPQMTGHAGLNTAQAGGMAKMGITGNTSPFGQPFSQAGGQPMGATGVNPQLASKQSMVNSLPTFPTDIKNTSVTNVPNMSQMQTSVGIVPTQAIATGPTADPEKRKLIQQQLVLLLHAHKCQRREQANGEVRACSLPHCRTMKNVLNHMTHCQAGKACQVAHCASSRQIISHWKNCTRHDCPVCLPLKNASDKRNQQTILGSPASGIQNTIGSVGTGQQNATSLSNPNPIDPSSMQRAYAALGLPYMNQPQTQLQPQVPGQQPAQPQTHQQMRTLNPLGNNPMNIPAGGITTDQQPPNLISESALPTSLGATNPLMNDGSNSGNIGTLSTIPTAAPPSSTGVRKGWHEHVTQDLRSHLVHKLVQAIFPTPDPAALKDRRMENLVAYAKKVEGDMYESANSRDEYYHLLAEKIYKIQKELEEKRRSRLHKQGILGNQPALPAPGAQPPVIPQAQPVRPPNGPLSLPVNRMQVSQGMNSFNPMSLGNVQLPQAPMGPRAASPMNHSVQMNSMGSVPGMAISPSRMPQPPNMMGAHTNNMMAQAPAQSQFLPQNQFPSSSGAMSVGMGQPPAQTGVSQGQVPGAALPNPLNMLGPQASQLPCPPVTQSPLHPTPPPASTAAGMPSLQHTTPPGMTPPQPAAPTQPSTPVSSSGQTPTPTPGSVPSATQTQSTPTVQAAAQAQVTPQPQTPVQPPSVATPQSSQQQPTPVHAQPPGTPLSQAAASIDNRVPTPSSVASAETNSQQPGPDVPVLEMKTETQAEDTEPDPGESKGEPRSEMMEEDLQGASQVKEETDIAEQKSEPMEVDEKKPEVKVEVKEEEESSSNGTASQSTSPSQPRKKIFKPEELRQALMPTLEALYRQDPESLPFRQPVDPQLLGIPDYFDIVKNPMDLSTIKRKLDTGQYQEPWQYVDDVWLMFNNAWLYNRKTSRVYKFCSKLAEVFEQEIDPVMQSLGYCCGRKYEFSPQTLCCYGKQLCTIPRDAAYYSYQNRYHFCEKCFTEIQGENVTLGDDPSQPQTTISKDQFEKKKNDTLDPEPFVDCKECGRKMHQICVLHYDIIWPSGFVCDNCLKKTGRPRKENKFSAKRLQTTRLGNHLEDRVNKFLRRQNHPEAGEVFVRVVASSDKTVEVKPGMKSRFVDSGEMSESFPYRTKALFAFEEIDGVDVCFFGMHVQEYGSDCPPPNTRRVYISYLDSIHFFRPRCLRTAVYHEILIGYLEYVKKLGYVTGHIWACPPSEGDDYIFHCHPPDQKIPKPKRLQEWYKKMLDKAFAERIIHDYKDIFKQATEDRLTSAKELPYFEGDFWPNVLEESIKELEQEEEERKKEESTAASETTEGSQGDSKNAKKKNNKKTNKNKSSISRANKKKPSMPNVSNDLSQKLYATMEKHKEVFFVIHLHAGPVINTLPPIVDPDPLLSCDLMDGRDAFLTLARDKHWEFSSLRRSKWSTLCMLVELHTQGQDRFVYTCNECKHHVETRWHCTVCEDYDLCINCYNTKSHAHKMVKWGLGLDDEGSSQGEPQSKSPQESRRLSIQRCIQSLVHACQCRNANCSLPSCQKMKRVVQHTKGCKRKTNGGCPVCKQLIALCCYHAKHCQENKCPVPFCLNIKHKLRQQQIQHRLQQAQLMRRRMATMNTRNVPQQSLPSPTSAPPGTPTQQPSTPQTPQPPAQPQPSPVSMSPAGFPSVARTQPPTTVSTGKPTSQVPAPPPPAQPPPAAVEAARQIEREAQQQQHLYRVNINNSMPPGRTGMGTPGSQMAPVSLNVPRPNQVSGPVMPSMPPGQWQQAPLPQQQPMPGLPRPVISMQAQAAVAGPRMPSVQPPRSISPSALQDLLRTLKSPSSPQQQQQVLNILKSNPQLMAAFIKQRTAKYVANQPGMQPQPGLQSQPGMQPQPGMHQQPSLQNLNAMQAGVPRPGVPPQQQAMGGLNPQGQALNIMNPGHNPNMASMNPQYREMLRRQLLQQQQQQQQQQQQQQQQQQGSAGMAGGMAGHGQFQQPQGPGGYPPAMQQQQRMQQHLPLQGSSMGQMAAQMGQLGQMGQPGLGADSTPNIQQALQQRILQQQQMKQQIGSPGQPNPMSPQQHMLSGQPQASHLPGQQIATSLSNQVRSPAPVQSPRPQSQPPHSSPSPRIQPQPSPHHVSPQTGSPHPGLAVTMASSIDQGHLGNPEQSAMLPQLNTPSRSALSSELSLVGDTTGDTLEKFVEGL

In the case of `Cc1nnc2n1-c1ccc(-c3ccc(N)nc3)cc1N(c1ccc(Cl)cc1)C[C@H]2C`, the IC50 [1] is reported as over 15000 nM, the AUC(0-t) [2] is reported as 1.4 µM·h and the half-life [3] is reported as 1.8 h. It also gave a CL [4] of 90%, a fraction unbound [5] of 0.04 and an IC50 [6] of 3 nM. The IC50 [7] was over 15000 nM, the fraction unbound [8] was 0.02 and the bioavailability [9] was 23%. It also gave a Vd [10] of 2.2 L/kg, a fraction unbound [11] of 0.02 and a CL free [12] of 1580 mL/min/kg. The IC50 (CREB-binding protein) was 2200 nM.
